{"source": "patent US11701373B2", "about": "“Substituted bicyclic compounds” (BRISTOL-MYERS SQUIBB COMPANY, priority 2014, dated 2023)", "key": {"Lewis rats": {"test_system": "Lewis rats", "experiment": "Blood Lymphocyte Reduction (BLR) Assay in rat", "assay_type": "in vivo", "conditions": "for Percent reduction vs. control at 24 hr post-dose (blood lymphocytes): rat, oral, 0.1 mg/kg", "description": "(§1) Blood Lymphocyte Reduction (BLR) Assay in Rodent:\n(§2) Lewis rats or BALB/c mice were dosed orally with vehicle alone (polyethylene glycol 300, “PEG300”) or with test compounds. Compounds were dosed as a solution or suspension in the vehicle, adjusted to reflect the free amount of test article in the event that salt forms are utilized. Blood was drawn at 24 hr and blood lymphocyte counts were determined on an ADVIA 120 Hematology Analyzer (Siemens Healthcare Diagnostics). The results were measured as a reduction in the percentage of circulating lymphocytes as compared to the vehicle treated group at the time of measurement. The results represent the average results of all animals within each treatment group (n=2-4)."}, "Male Lewis rats": {"test_system": "Male Lewis rats", "experiment": "Rat Adjuvant Induced Arthritis Assay (AA)", "assay_type": "in vivo", "conditions": "prophylactic oral dosing regimen", "description": "Rat Adjuvant Induced Arthritis Assay (AA)\nThe rat adjuvant-induced arthritis model is an animal model for human rheumatoid arthritis.\nMale Lewis rats (150-175 g; Harlan, n=8 treatment group) were immunized at the base of the tail with 100 μl of 10 mg/ml freshly ground Mycobacterium butyricum (Difco Laboratories) in incomplete Freund's adjuvant (sigma). Animals were dosed once daily with the test article (as a solution or suspension in the vehicle) or vehicle alone (polyethylene glycol 300, “PEG300”) starting from the day of immunization. The volumes of their hind paws were measured in a water displacement plethysmometer (Ugo Basile, Italy). The baseline paw measurements were taken before onset of the disease (between day 7 to day 10). The paw measurements were then taken three times a week until the end of the study on day 20 to 21. All procedures involving animals were reviewed and approved by the Institutional Animal Care Use Committee."}, "C57BL/6 mice": {"test_system": "C57BL/6 mice", "experiment": "Mouse Experimental Autoimmune Encephalomyelitis Assay (EAE)", "assay_type": "in vivo", "conditions": "for inhibition of disease progression as measured by clinical scores: C57Bl/6 mice, prophylactic oral dosing regimen; for Clinical scores on day 22, Mean: C57BL/6 mice, prophylactic, vehicle mean 4.1", "description": "Mouse Experimental Autoimmune Encephalomyelitis Assay (EAE)\nMice (C57BL/6 female, 6-8 weeks of age, Charles River, n=10 treatment group) were immunized subcutaneously with 150 μg MOG35-55 emulsified 1:1 with incomplete Freund's adjuvant (sigma) supplemented with 150 μg Mycobacterium tuberculosis H37RA (Difco Laboratories). 400 ng of pertussis toxin (CalBiochem) was injected intraperitoneally on the day of immunization and 2 day later. Clinical scoring and body weight were taken 3 times per week. Clinical scoring system: 0.5: partial tail weakness; 1: limp tail or waddling gait with tail tonicity; 1.5: waddling gait with partial tail weakness; 2: waddling gait with limp tail (ataxia); 2.5: ataxia with partial limb paralysis; 3: full paralysis of one limb; 3.5: full paralysis of one limbs with partial paralysis of a second limb; 4: full paralysis of two limbs; 4.5: moribund; 5: death. Mean clinical score was calculated by averaging the scores of all mice in each group. All procedures involving animals were reviewed and approved by the Institutional Animal Care Use Committee."}, "Female Lewis rats": {"test_system": "Female Lewis rats", "experiment": "Rat Experimental Autoimmune Encephalomyelitis (EAE)", "assay_type": "in vivo", "conditions": "prophylactic oral dosing regimen", "description": "Rat Experimental Autoimmune Encephalomyelitis (EAE)\nFemale Lewis rats (150-200 g; Harlan) were immunized at the base of the tail with 0.1 ml of a complete Freund's adjuvant emulsion containing 0.5 mg/mL guinea pig myelin basic protein (Genemed Synthesis) and 2 mg/mL Mycobacterium butyricum (Difco). Beginning on Day 7, rats (n=11/group) were scored individually at least 3×/wk according to the following scheme:\nAverage clinical scores were calculated for each treatment group on each day of assessment."}, "BALB/c mice": {"test_system": "BALB/c mice", "experiment": "Blood Lymphocyte Reduction (BLR) Assay in mouse", "assay_type": "in vivo", "description": "as §1, §2"}, "Male MRL/lpr mice": {"test_system": "Male MRL/lpr mice", "experiment": "MRL/lpr Lupus Model (anti-dsDNA antibody titers, kidney histology)", "assay_type": "in vivo, mouse", "conditions": "for Anti-dsDNA antibody titers (23 weeks of age) (Mean): ratio to pooled MRL/lpr immune serum titer; for Kidney Histology (nephritis) 23 weeks of age (Mean): total score, highest possible 36", "description": "MRL/lpr is a spontaneous model of lupus. Male MRL/lpr mice (Jackson Laboratory) at the age of 12-14 weeks were enrolled for the study (N=12). Mice were dosed p.o. daily with vehicle (18.4% (w/v) hydroxypropyl-b-cyclodextrin in 13.8 mM citric acid) or with Example 681 at 0.06, 0.3, 1.5 mg/kg. Mice were bled every other week for anti-dsDNA antibodies measured by ELISA using pooled serum from diseased MRL/lpr mice as a positive comparator in each assay. The data were expressed in arbitrary units as a ratio of the titer of the test serum to the titer of the pooled MRL/lpr immune serum.\nAt the end of study, one kidney was collected into 10% neutral buffered formalin and ZincTris fixatives. Fixed tissues were processed into paraffin blocks, sectioned at 3p m, and stained with H&E or PASH. Kidney sections were graded using following criteria: Glomerular Damage: 1. Mesangial matrix thickening, cell proliferation, 2. Crescent formation, cellular deposits/casts in Bowman's space, 3. Cellular infiltration, mononuclear cells in glomerular tufts, 4. Fibrosis of Bowman's capsule. Tubular damage: 1. Infiltration of mononuclear cells, 2. Severity of tubular damage, 3. Protein casts. Tubulo-interstitial damage: 1. Fibrosis, 2. Infiltration of mononuclear cells. Each subcategory was assigned a score from 0-4, with the scores for glomerular indices representing the mean from 20 glomeruli per kidney. The total score for each mouse was the sum of the above 9 subcategories, with the highest possible score=36."}}, "note": "“Also recorded” adds a separate entry of the source.", "data": [{"compound": "COCCCCCC1CCc2cc([C@@H]3CC[C@](N)(CO)C3)ccc2C1", "note": "(single isomer, unassigned) [Example 674]", "values": [{"measurement": "Percent reduction vs. control at 24 hr post-dose (blood lymphocytes)", "setting": "Lewis rats", "value": 30, "unit": "%"}]}, {"compound": "COCCCCCC1CCc2cc([C@@H]3CC[C@](N)(CO)C3)ccc2C1", "note": "(single isomer, unassigned) [Example 675]", "values": [{"measurement": "Percent reduction vs. control at 24 hr post-dose (blood lymphocytes)", "setting": "Lewis rats", "value": 63, "unit": "%"}]}, {"compound": "COCCCCC[C@H]1CCc2cc([C@H]3CC[C@](N)(CO)C3)ccc2C1", "note": "[Example 672, ((1R,3S)-1-amino-3-((S)-6-(5-methoxypentyl)-5,6,7,8-tetrahydronaphthalen-2-yl)cyclopentyl)methanol]", "values": [{"measurement": "inhibition of disease progression as measured by reduced paw swelling", "setting": "Male Lewis rats", "value": "showed inhibition of disease progression"}]}, {"compound": "CCOCCC[C@H]1CCc2cc([C@H]3CC[C@](N)(CO)C3)ccc2C1", "note": "[Example 678, ((1R,3S)-1-amino-3-((R)-6-(3-ethoxypropyl)-5,6,7,8-tetrahydronaphthalen-2-yl)cyclopentyl)methanol]", "values": [{"measurement": "Percent reduction vs. control at 24 hr post-dose (blood lymphocytes)", "setting": "Lewis rats", "value": 16, "unit": "%"}]}, {"compound": "CCOCCC[C@@H]1CCc2cc([C@H]3CC[C@](N)(CO)C3)ccc2C1", "note": "[Example 679, ((1R,3S)-1-amino-3-((S)-6-(3-ethoxypropyl)-5,6,7,8-tetrahydronaphthalen-2-yl)cyclopentyl)methanol]", "values": [{"measurement": "Percent reduction vs. control at 24 hr post-dose (blood lymphocytes)", "setting": "Lewis rats", "value": 65, "unit": "%"}, {"measurement": "inhibition of disease progression as measured by reduced paw swelling", "setting": "Male Lewis rats", "value": "showed inhibition of disease progression"}, {"measurement": "inhibition of disease progression as measured by clinical scores", "setting": "C57BL/6 mice", "value": "showed inhibition of disease progression; also recorded: inhibit disease progression"}, {"measurement": "inhibition of disease progression as measured by reduced clinical scores", "setting": "Female Lewis rats", "value": "showed inhibition of disease progression"}]}, {"compound": "COc1ccccc1CC[C@H]1CCc2cc([C@H]3CC[C@](N)(CO)C3)ccc2C1", "note": "[Example 682, ((1R,3S)-1-amino-3-((R)-6-(2-methoxyphenethyl)-5,6,7,8-tetrahydronaphthalen-2-yl)cyclopentyl)methanol]", "values": [{"measurement": "Percent reduction vs. control at 24 hr post-dose (blood lymphocytes)", "setting": "Lewis rats", "value": 17, "unit": "%"}]}, {"compound": "((1R,3S)-1-amino-3-((S)-6-(2-methoxyphenethyl)-5,6,7,8-tetrahydronaphthalen-2-yl)cyclopentyl)methanol [Example 681]", "values": [{"measurement": "Percent reduction vs. control at 24 hr post-dose (blood lymphocytes)", "setting": "Lewis rats", "value": 53, "unit": "%"}, {"measurement": "lymphocyte reduction", "setting": "Lewis rats; rodent BLR assay, 0.1 mg/kg oral, 24 hours post-dose, versus vehicle group", "value": 53, "unit": "%"}, {"measurement": "lymphocyte reduction", "setting": "BALB/c mice; mice, 0.5 mg/kg oral, 24 hours post dose", "value": 85, "unit": "%"}, {"measurement": "Mouse Blood Lymphocyte Reduction Assay at 24 hr post-dose Percent reduction vs. control", "setting": "BALB/c mice; mouse, oral, 0.5 mg/kg, 24 hr post-dose", "value": 85, "unit": "%"}, {"measurement": "Clinical scores on day 22, Mean", "setting": "C57BL/6 mice; 0.1 mg/kg oral", "value": 3.1}, {"measurement": "Clinical scores on day 22, Mean", "setting": "C57BL/6 mice; 0.5 mg/kg oral", "value": 1.1}, {"measurement": "Clinical scores on day 22, Mean", "setting": "C57BL/6 mice; 2 mg/kg oral", "value": 0.8}, {"measurement": "inhibition of disease progression as measured by clinical scores", "setting": "C57BL/6 mice", "value": "showed inhibition of disease progression; also recorded: inhibit disease progression"}, {"measurement": "Anti-dsDNA antibody titers (23 weeks of age) (Mean)", "setting": "Male MRL/lpr mice; 0.06 mg/kg p.o. daily", "value": 1.861, "unit": "arbitrary units"}, {"measurement": "Kidney Histology (nephritis) 23 weeks of age (Mean)", "setting": "Male MRL/lpr mice; 0.06 mg/kg p.o. daily", "value": 10.13}, {"measurement": "Anti-dsDNA antibody titers (23 weeks of age) (Mean)", "setting": "Male MRL/lpr mice; 0.3 mg/kg p.o. daily", "value": 0.978, "unit": "arbitrary units"}, {"measurement": "Kidney Histology (nephritis) 23 weeks of age (Mean)", "setting": "Male MRL/lpr mice; 0.3 mg/kg p.o. daily", "value": 10.00}, {"measurement": "Anti-dsDNA antibody titers (23 weeks of age) (Mean)", "setting": "Male MRL/lpr mice; 1.5 mg/kg p.o. daily", "value": 1.023, "unit": "arbitrary units"}, {"measurement": "Kidney Histology (nephritis) 23 weeks of age (Mean)", "setting": "Male MRL/lpr mice; 1.5 mg/kg p.o. daily", "value": 12.63}, {"measurement": "inhibition of disease progression as measured by anti-dsDNA titers", "setting": "Male MRL/lpr mice; p.o. daily", "value": "showed inhibition of disease progression"}, {"measurement": "inhibition of disease progression as measured by kidney histology", "setting": "Male MRL/lpr mice; p.o. daily", "value": "showed inhibition of disease progression"}]}]}
